Experimental data published in article PMC3322948, “Phase I first-in-human study of TAK-285, a novel investigational dual HER2/EGFR inhibitor, in cancer patients” (British Journal of Cancer, 2012).

Key:
HER2 = details: biochemical; ref Aertgeerts et al, 2011; read-out: 50% inhibition concentration, HER2 phosphorylation; cited from earlier work
[1] = Urinary excretion after oral TAK-285; type: in vivo, human (Japanese patients); details: up to 12- or 24-h postdose following single or multiple dosing
Method: In the dose escalation cohort, plasma samples for PK analysis were collected at predose and up to 72 h after single dose administration and on day 21 after repeated administration of TAK-285. Urine samples were also collected up to 24-h postdose. In the repeated administration cohort, plasma samples for PK analysis were collected at predose and up to 12-h postdose on days 1 and 28. Urine samples were also collected up to 12-h postdose each day. Concentrations of TAK-285 and M-I in plasma and urine were determined using validated liquid chromatography tandem mass spectrometry (LC-MS/MS) methods. The plasma and urine samples were treated by liquid–liquid extraction and subjected to LC-MS/MS equipped with a reversed-phase column. The lower limit of quantification for both TAK-285 and M-I was 0.2 ng ml^–1 in plasma and 2 ng ml^–1 in urine when 50 μl of the plasma sample and 55 μl of the urine sample (containing 5 μl of Tween 80 solution) were analysed. Tween 80 solution was added to the urine sample to prevent the adsorption of analytes onto the sample containers. The accuracy of the plasma assay (percentage deviation from nominal) ranged from −10.8 to 11.0% for TAK-285, and from −14.0 to 13.8% for M-I. […] Pharmacokinetic parameters of TAK-285 and M-I were estimated for each patient using noncompartmental methods with Phoenix WinNonlin Version 6.1 (Pharsight, Mountain View, CA, USA).

[2] = Phase I safety, DLT and MTD in patients with solid tumours; type: in vivo
Source text: This was a phase I, multicentre, open-label study, conducted to investigate the safety, pharmacokinetics (PKs), and determine the maximum tolerated dose (MTD) of oral TAK-285 in patients with solid tumours. Two cohorts were planned for this study: a dose escalation cohort and a repeated administration cohort. In the dose escalation cohort, patients received a single oral dose of TAK-285, followed by 2–6 days of observation without treatment, followed by treatment with the same dose if the safety was confirmed. In this cohort, patients received TAK-285 […]. One cycle was 4 weeks, consisting of 3 weeks of treatment and 1 week of observation without treatment. TAK-285 was given once daily (q.d.) or twice daily (b.i.d.). The dose was escalated from a starting dose of 50 mg until the MTD was determined. In the repeated administration cohort, patients were treated with oral TAK-285 at the MTD for at least 4 weeks in order to confirm safety.
In the dose escalation cohort, the dose of TAK-285 was decided by consideration of adverse events (AEs) observed during the first cycle. […] Dose escalation was continued until the MTD was determined. The dose of TAK-285 was increased by 100 or 40% in accordance with accelerated titration designs reported previously ([Simon et al, 1997]). A DLT was defined as any TAK-285-related grade 4 haematological toxicity, grade 3 or worse non-haematological toxicity, grade 3 or worse neutropenia (<1000 mm^–3) with fever of 38 °C or higher, or toxicity resulting in cessation of treatment for >21 consecutive days (including the stipulated period of observation without treatment).
Safety evaluations included vital signs (oxygen saturation, body temperature, breathing rate, blood pressure and pulse), clinical laboratory tests, lung function tests (pulmonary surfactant protein-A, pulmonary surfactant protein-D, Krebs von den Lunge-6 and arterial blood gas analysis), chest X-ray, and 12-lead electrocardiogram (ECG). These tests were performed weekly with the exception of chest X-rays (every 4 weeks), arterial blood gas analysis (at screening) and ECG (4 time points each at screening, on day 1 and day 8, after DLT assessment, one time point every 4 weeks). All ECG charts were submitted to the ECG evaluation committee to assess cardiac function. Adverse events were graded based on the National Cancer Institute Common Toxicity Criteria for Adverse Events, version 3.0 (Bethesda, MD, USA).

For `CC(C)(O)CC(=O)NCCn1ccc2ncnc(Nc3ccc(Oc4cccc(C(F)(F)F)c4)c(Cl)c3)c21` [TAK-285], the IC50 (HER2) is given as 17 nM, the “mean cumulative excretion ratio in urine” value [1] is given as “below 0.02 % of the dose” and the “patients who died during the study” value ([2]; cause considered unrelated to TAK-285) is given as “Two”. For the same compound, the “Alanine aminotransferase increased ⩾Grade 3, number of patients” value ([2]; human, in vivo) was 4, the “Alanine aminotransferase increased, incidence” value ([2]; human, in vivo) was 46.2% and the “Alanine aminotransferase increased, number of patients” value ([2]; human, in vivo) was 12. The “Any adverse events ⩾Grade 3, number of patients” value ([2]; human, in vivo) was 12, the “Any adverse events, incidence” value ([2]; human, in vivo) was 100.0% and the “Any adverse events, number of patients” value ([2]; human, in vivo) was 26. The “Aspartate aminotransferase increased ⩾Grade 3, number of patients” value ([2]; human, in vivo) was 3, the “Aspartate aminotransferase increased, incidence” value ([2]; human, in vivo) was 46.2% and the “Aspartate aminotransferase increased, number of patients” value ([2]; human, in vivo) was 12. For the same compound, the “Blood alkaline phosphatase increased ⩾Grade 3, number of patients” value ([2]; human, in vivo) was 0, the “Blood alkaline phosphatase increased, incidence” value ([2]; human, in vivo) was 19.2% and the “Blood alkaline phosphatase increased, number of patients” value ([2]; human, in vivo) was 5. For the same compound, the “Blood bilirubin increased ⩾Grade 3, number of patients” value ([2]; human, in vivo) was 1, the “Blood bilirubin increased, incidence” value ([2]; human, in vivo) was 34.6% and the “Blood bilirubin increased, number of patients” value ([2]; human, in vivo) was 9. For the same compound, the “Blood creatinine increased ⩾Grade 3, number of patients” value ([2]; human, in vivo) was 0, the “Blood creatinine increased, incidence” value ([2]; human, in vivo) was 11.5% and the “Blood creatinine increased, number of patients” value ([2]; human, in vivo) was 3. For the same compound, the “Blood lactate dehydrogenase increased ⩾Grade 3, number of patients” value ([2]; human, in vivo) was 1, the “Blood lactate dehydrogenase increased, incidence” value ([2]; human, in vivo) was 19.2% and the “Blood lactate dehydrogenase increased, number of patients” value ([2]; human, in vivo) was 5. For the same compound, the “Cancer pain ⩾Grade 3, number of patients” value ([2]; human, in vivo) was 1, the “Cancer pain, incidence” value ([2]; human, in vivo) was 19.2% and the “Cancer pain, number of patients” value ([2]; human, in vivo) was 5. For the same compound, the “Constipation ⩾Grade 3, number of patients” value ([2]; human, in vivo) was 0, the “Constipation, incidence” value ([2]; human, in vivo) was 26.9% and the “Constipation, number of patients” value ([2]; human, in vivo) was 7. For the same compound, the “Decreased appetite ⩾Grade 3, number of patients” value ([2]; human, in vivo) was 2, the “Decreased appetite, incidence” value ([2]; human, in vivo) was 23.1% and the “Decreased appetite, number of patients” value ([2]; human, in vivo) was 6. The “Diarrhoea ⩾Grade 3, number of patients” value ([2]; human, in vivo) was 0, the “Diarrhoea, incidence” value ([2]; human, in vivo) was 34.6% and the “Diarrhoea, number of patients” value ([2]; human, in vivo) was 9. The “Dry skin ⩾Grade 3, number of patients” value ([2]; human, in vivo) was 0, the “Dry skin, incidence” value ([2]; human, in vivo) was 15.4% and the “Dry skin, number of patients” value ([2]; human, in vivo) was 4. For the same compound, the “Gamma-glutamyltransferase increased ⩾Grade 3, number of patients” value ([2]; human, in vivo) was 4, the “Gamma-glutamyltransferase increased, incidence” value ([2]; human, in vivo) was 26.9% and the “Gamma-glutamyltransferase increased, number of patients” value ([2]; human, in vivo) was 7. The “Haemoglobin decreased ⩾Grade 3, number of patients” value ([2]; human, in vivo) was 1, the “Haemoglobin decreased, incidence” value ([2]; human, in vivo) was 11.5% and the “Haemoglobin decreased, number of patients” value ([2]; human, in vivo) was 3. For the same compound, the “Nausea ⩾Grade 3, number of patients” value ([2]; human, in vivo) was 0, the “Nausea, incidence” value ([2]; human, in vivo) was 19.2% and the “Nausea, number of patients” value ([2]; human, in vivo) was 5. The “Pyrexia ⩾Grade 3, number of patients” value ([2]; human, in vivo) was 0, the “Pyrexia, incidence” value ([2]; human, in vivo) was 23.1% and the “Pyrexia, number of patients” value ([2]; human, in vivo) was 6. The “Rash ⩾Grade 3, number of patients” value ([2]; human, in vivo) was 0, the “Rash, incidence” value ([2]; human, in vivo) was 42.3% and the “Rash, number of patients” value ([2]; human, in vivo) was 11. The “Stomatitis ⩾Grade 3, number of patients” value ([2]; human, in vivo) was 0, the “Stomatitis, incidence” value ([2]; human, in vivo) was 11.5% and the “Stomatitis, number of patients” value ([2]; human, in vivo) was 3. The “Vomiting ⩾Grade 3, number of patients” value ([2]; human, in vivo) was 0, the “Vomiting, incidence” value ([2]; human, in vivo) was 15.4% and the “Vomiting, number of patients” value ([2]; human, in vivo) was 4. The “grade 4 AEs related to TAK-285” value ([2]; human, in vivo) was “no grade 4 AEs”, the grade of diarrhoea ([2]; human, in vivo) was ≤ 2 grade and the grade of rash ([2]; human, in vivo) was ≤ 2 grade. For the same compound, the “lung function tests, chest X-rays, vital signs or ECGs” value ([2]; human, in vivo) was “No clinically significant changes”, the “patients with AEs considered related to TAK-285, number” value ([2]; human, in vivo) was 22 and the “patients with AEs considered related to TAK-285, percent” value ([2]; human, in vivo) was 84.6%. The “patients with dose-limiting toxicities” value ([2]; human, in vivo) was “two”, the pneumonitis ([2]; human, in vivo) was “not reported” and the “related AEs grade 2, number of patients” value ([2]; human, in vivo) was 11. The “related AEs grade 2, percent of patients” value ([2]; human, in vivo) was 42.3%, the “related AEs grade 2 or lower, number of patients” value ([2]; human, in vivo) was 17 and the “related AEs grade 2 or lower, percent of patients” value ([2]; human, in vivo) was 65.4%. The “related AEs grade 3, number of patients” value ([2]; human, in vivo) was 5, the “related AEs grade 3, percent of patients” value ([2]; human, in vivo) was 19.2% and the “maximum tolerated dose (MTD)” value ([2]; oral, patients with solid tumours) was 300 mg b.i.d.
